Test results as given in patent US20230303972A1, “IN VITRO GENETIC DISEASE MODEL CELL AND METHOD FOR PRODUCING THE SAME” (Ricoh Company, Ltd., priority 2022, published 2023).

Legend:
hMECP2 = test: Ratio of neurocytes with MECP2 knocked down versus amount of lentivirus infection (mCherry fluorescence); assay type: cell-based, human; conditions: coculture
Description: As a lentivirus vector for transfection, an hMECP2-shRNA lentivirus vector plasmid was used. This plasmid vector contains, downstream of a U6 promoter, a base sequence of SEQ ID NO: 3 ([…]) encoding an shRNA complementary to the 3′ UTR of the hMECP2 gene. Additionally, as a control lentivirus vector, an NC-shRNA lentivirus vector plasmid was used. This plasmid vector contains, downstream of a U6 promoter, a non-mammalian shRNA having a base sequence of SEQ ID NO: 4 ([…]).
(§1) At 4 days after the cell seeding, virus solutions for expression of the respective shRNAs were added under MOI 0.1 and MOI 1, and allowed to cause infection. MOI was prepared in accordance with only the number of neurocytes. At 7 hours after the infection, the whole amount of culture medium was replaced. To the culture medium in the wells to be rescued, BDNF, which is known for the therapeutic effect for Rett syndrome, was added at 50 ng/mL.

[1] = tested on: iPS cell-derived differentiated neurocyte alone; test: Neurite morphology of iPS cell-derived neurocytes infected with hMECP2-shRNA lentivirus, single culture; assay type: cell-based, human; conditions: FIG. 3
Procedure: (§2) Commercially available iPS-cell-derived neurocytes (#EX-SeV-CW50065, Elixirgen Scientific, Inc.) and commercially available human primary astrocytes (#N7805-100, Thermo Fisher Scientific Inc.) were thawed and used to prepare cell suspensions with culture media at 1×10^4 cells/well and 2.5×10^3 cells/well respectively. After the Laminine solution was removed, the suspension was seeded at 50 μL/well, and cocultured. For single culture, 1×10^4 cells/well neurocytes were seeded at 50 μL/well. The culture continued under 5% CO2 at 37° C. in the incubator for 6 weeks. Half the amount of the culture medium was replaced once in 3 to 4 days. The culture medium used was a culture medium specified by Elixirgen Scientific, Inc. for the period of 1 week after the seeding. Then, the culture medium used was Neurobasal Plus supplemented with 2% B-27 Plus, 1% GlutaMAX, 200 μM ascorbic acid, 10% Neurocyte culture medium, and 1% penicillin-streptomycin.
as §1, with “ng/mL. […]” for “ng/mL.”

[2] = tested on: iPS cell-derived differentiated neurocyte cocultured with human primary astrocyte; test: Neurite morphology of iPS cell-derived neurocytes with hMECP2 knockdown, coculture with human primary astrocytes (phase-contrast observation, BDNF rescue); assay type: cell-based; conditions: observed Day 11 to Day 42
Procedure: as §2
as §1, with “ng/mL. […]” for “ng/mL.”

| Molecule | Ratio of neurocytes with MECP2 knocked down (hMECP2; infection with a large amount of lentivirus, FIG. 5) | Ratio of neurocytes with MECP2 knocked down (hMECP2; infection with a small amount of lentivirus, FIG. 4) | Knockdown effect on hMECP2 evaluated by number of neurites and length of the neurite [1] | Knockdown effect on hMECP2 evaluated by number of neurites and length of the neurite ([2]; coculture of neurocyte and human primary astrocyte, FIG. 1 a to f) | Rescue of the hMECP2 knockdown effect (decrease in number and length of neurites) ([2]; BDNF 50 ng/mL in culture medium, hMECP2-shRNA lentivirus-infected neurocytes cocultured with astrocytes, FIG. 1 g to l) |
| --- | --- | --- | --- | --- | --- |
| hMECP2-shRNA: shRNA complementary to the 3′ UTR of the hMECP2 gene, encoded by SEQ ID NO: 3, expressed from a lentivirus vector (DNA GGGTAGGGCTCTGACAAAGCTTCCCGATTAACTGAAATAAA) | in substantially all the neurocytes | in a part of the neurocytes | neither a decrease in the number of neurites nor a change in the length of the neurite | chronological decrease in the number of neurites and decrease in the length of the neurite | – |
| BDNF: BDNF, which is known for the therapeutic effect for Rett syndrome, added to culture medium (protein, UniProt P23560 19-247, looked up) Neurotrophic factor BDNF …: APMKEANIRGQGGLAYPGVRTHGTLESVNGPKAGSRGLTSLADTFEHVIEELLDEDQKVRPNEENNKDADLYTSRVMLSSQVPLEPPLLFLLEEYKNYLDAANMSMRVRRHSDPARRGELSVCDSISEWVTAADKKTAVDMSGGTVTVLEKVPVSKGQLKQYFYETKCNPMGYTKEGCRGIDKRHWNSQCRTTQSYVRALTMDSKKRIGWRFIRIDTSCVCTLTIKRGR | – | – | – | – | improved |
